Read-outs that look alike come from different tables or passages of the source.
What was measured:
[1] = tested on: human ovarian teratocarcinoma xenograft PA-1; experiment: Human tumor xenograft model in mice: PA-1 (combination with carboplatin); type: in vivo
[2] = tested on: ALL-SIL T-cell lymphoblastic leukemia; experiment: Human tumor xenograft model in mice: ALL-SIL (combination with dasatinib); type: in vivo; details: for Tumor Growth Delay / Tumor Growth Delay (LCK): target tumor size 1000 mg
[3] = tested on: human T-ALL leukemia xenografts HPB-ALL; experiment: Human tumor xenograft model in mice: HPB-ALL (combination with dexamethasone); type: in vivo; details: for Tumor Growth Delay / Tumor Growth Delay (LCK): target tumor size 3000 mg
[4] = tested on: human tumor xenografts; experiment: Human Tumor Xenograft Models in Mice (various tumors); type: in vivo; details: for Antitumor Activity (% TGI): PO, QD × 15, 10 day-on-2 day-off, 5-10 mg/kg/adm; for antitumor activity: oral administration (PO)
[5] = tested on: TALL1 Human T-cell acute lymphoblastic leukemia; experiment: Human tumor xenograft model in mice: TALL1; type: in vivo; details: for Antitumor Activity TALL1 (LCK): oral, QD × 15, 10 Day-on-2 Day-off
[6] = High Throughput (HT) Metabolic Stability Panel, mouse liver microsomes
Experimental: (§1) Each compound was tested in duplicate.

[7] = tested on: ER receptor positive human breast carcinoma xenograft MCF7; experiment: Human tumor xenograft model in mice: MCF7 (combination with Tamoxifen); type: in vivo; details: for Tumor Growth Inhibition TGI: target tumor size 500 mg
[8] = High Throughput (HT) Metabolic Stability Panel, human liver microsomes
Experimental: as §1

[9] = tested on: Notch 1; experiment: Notch-CBF1 Transactivation Assay (Notch 1); type: cell-based
Excerpt: (§2) Table 12 denotes respective DNA quantity for the transfections.
(§3) Duplicates were used for each sample.

[10] = tested on: human breast carcinoma cell line MDA-MB-157; experiment: Human tumor xenograft model in mice: MDA-MB-157; type: in vivo; details: for Antitumor Activity MDA-MB-157 (% TGI): oral, QD × 15, 10 Day-on-2 Day-off
[11] = tested on: MDA-MB-468 Human Breast Carcinoma; experiment: Human tumor xenograft model in mice: MDA-MB-468 (combination with paclitaxel); type: in vivo; details: for Tumor Growth Delay / Tumor Growth Delay (LCK): target tumor size 500 mg; for Antitumor Activity MDA-MB-468 (% TGI): oral, QD × 15, 10 Day-on-2 Day-off
[12] = tested on: Notch 3; experiment: Notch-CBF1 Transactivation Assay (Notch 3); type: cell-based
Excerpt: as §2, §3

[13] = Dexamethasone 3.75 mg/kg IP, QD x 14
[14] = Example 1 3.75 mg/kg PO, QD x 3, weekly x 3
[15] = Example 1 […] PO, QD x 3, weekly x 3
[16] = Example 1 3.75 mg/kg PO, QD x 3, weekly x 7
[17] = Example 1 […] PO, QD x 3, weekly x 7
[18] = Example 1 1 mg/kg PO, QD x 21, target tumor size 500 mg
[19] = Example 1 3.75 mg/kg PO, QD ×3, weekly ×3
[20] = 0.5 μM compound, mouse liver microsomes, 10 min incubation
[21] = 0.5 μM compound, human liver microsomes, 10 min incubation
[22] = read-out: Notch 1 (IC50), HeLa cells, luciferase, rounded to 2 digits
[23] = read-out: Notch 3 (IC50), HeLa cells, luciferase, rounded to 2 digits
[24] = Paclitaxel 12 mg/kg IV, Q7D x 6
[25] = Tamoxifen 20 mg/kg IP, Q2D × 10

N.N.O=C([O-])C1(C(=O)[O-])CCC1.[Pt+2] [Carboplatin, carboplatin, reference compound]
antitumor effect (LCK) ([1]; carboplatin weekly, 90 mg/kg/adm): 2.1 LCK

Cc1nc(Nc2ncc(C(=O)Nc3c(C)cccc3Cl)s2)cc(N2CCN(CCO)CC2)n1 [Dasatinib, dasatinib, reference compound]
CR (%) ([2]; Dasatinib 10 mg/kg PO, QD x 49): 0% | PR (%) ([2]; Dasatinib 10 mg/kg PO, QD x 49): 0% | Tumor Growth Delay ([2]; Dasatinib 10 mg/kg PO, QD x 49): 30.2 days | Tumor Growth Delay (LCK) ([2]; Dasatinib 10 mg/kg PO, QD x 49): 1.7 LCK | antitumor effect (LCK) ([2]; dasatinib alone, 10 mg/kg/adm, QD×49, PO): 1.7 LCK

C[C@@H]1C[C@H]2[C@@H]3CCC4=CC(=O)C=C[C@]4(C)[C@@]3(F)[C@@H](O)C[C@]2(C)[C@@]1(O)C(=O)CO [Dexamethasone, dexamethasone, reference compound]
CR (%) [3, 13]: 0% | PR (%) [3, 13]: 0% | Tumor Growth Delay [3, 13]: 5.6 days | Tumor Growth Delay (LCK) [3, 13]: 0.6 LCK | Tumor Growth Delay ([3]; Dexamethasone […] IP, QD x 14): 5.8 days | Tumor Growth Delay (LCK) ([3]; Dexamethasone […] IP, QD x 14): 0.7 LCK | antitumor efficacy (LCK) ([3]; dexamethasone as a single agent at its MTD of 7.5 mpk): 0.7 LCK

CN1C(=O)[C@@H](NC(=O)[C@H](CCC(F)(F)F)[C@H](CCC(F)(F)F)C(N)=O)N=C(c2ccccc2)c2ccccc21 [Example 1, (2R,3S)—N-((3S)-1-Methyl-2-oxo-5-phenyl-2,3-dihydro-1H-1,4-benzodiazepin-3-yl)-2,3-bis(3,3,3-trifluoropropyl)succinamide]
CR (%) [3, 14]: 0% | PR (%) [3, 14]: 0% | Tumor Growth Delay [3, 14]: 7.8 days | Tumor Growth Delay (LCK) [3, 14]: 0.9 LCK | Tumor Growth Delay [3, 15]: 9.5 days | Tumor Growth Delay (LCK) [3, 15]: 1.1 LCK | antitumor efficacy (LCK) ([3]; Example 1 as a single agent at 7.5 mpk): 1.1 LCK | Antitumor Activity (% TGI) ([4]; BT-474, HER2+ breast cancer): 96 % TGI | Antitumor Activity (% TGI) ([4]; Calu-6, Non small cell lung cancer): 81 % TGI | Antitumor Activity (% TGI) ([4]; G292, osteogenic sarcoma): 75 % TGI | Antitumor Activity (% TGI) ([4]; HCT116, colon cancer): 75 % TGI | Antitumor Activity (% TGI) ([4]; MCF7i, estrogen-independent breast cancer): 63 % TGI | Antitumor Activity (% TGI) ([4]; Pat-21/Abx R, TN breast cancer (abx R)): 73 % TGI | Antitumor Activity (% TGI) ([4]; Pat-24, pancreatic cancer): 111 % TGI | Antitumor Activity (% TGI) ([4]; Pat-26, pancreatic cancer): 93 % TGI | Antitumor Activity (% TGI) ([4]; Pat-34, ovarian cancer): 89 % TGI | Antitumor Activity (% TGI) ([4]; Pat-50, ovarian cancer): 91 % TGI | Antitumor Activity (% TGI) ([4]; SK-N-AS, neuroblastoma): 67 % TGI | Antitumor Activity (% TGI) ([4]; U-87, glioblastoma multiforme (GBM)): 82 % TGI | antitumor activity [4]: showed antitumor activity | human cancer xenografts in which significant antitumor activity was demonstrated ([4]; xenografts grown in mice): 16 | CR (%) [2, 16]: 0% | PR (%) [2, 16]: 0% | Tumor Growth Delay [2, 16]: 8.7 days | Tumor Growth Delay (LCK) [2, 16]: 0.5 LCK | Tumor Growth Delay [2, 17]: 1.9 days | Tumor Growth Delay (LCK) [2, 17]: 0.1 LCK | complete response (CR) ([2]; single agent): none of the single agent produced CR | Antitumor Activity TALL1 (LCK) ([5]; 7.5-10 mg/kg): >4.7 LCK | Antitumor Activity (% TGI) ([5]; TALL1, T-Cell acute lymphoblastic leukemia, PO, QD × 15, 10 day-on-2 day-off, 5-10 mg/kg/adm): 112 % TGI | antitumor activity ([5]; intravenous route (IV), FIG. 6: TALL1, 5 mg/kg/adm, QD×3, IV): exhibited antitumor activity | 0.5 μM MsLM (% Remaining) ([6]; mouse, microsomes, 10 min, 0.5 µM, pH 7.4): 91% | CR (%) ([1]; Example 1 1 mg/kg PO, QD x 21): 0% | Cure (%) ([1]; Example 1 1 mg/kg PO, QD x 21): 0% | PR (%) ([1]; Example 1 1 mg/kg PO, QD x 21): 0% | Tumor Growth Delay [1, 18]: 4 days | Tumor Growth Delay (LCK) [1, 18]: 0.2 LCK | antitumor effect (LCK) ([1]; Example 1 as a single agent, 1 mg/kg/adm): 0.2 LCK | CR (%) [7, 19]: 0% | PR (%) [7, 19]: 0% | Tumor Growth Inhibition TGI [7, 19]: 43% | Tumor Growth Inhibition TGI ([7]; Example 1 […] PO, QD ×3, weekly ×3): 58% | Antitumor Activity (% TGI) ([7]; MCF7, estrogen-dependent breast cancer, single agent, PO, QD × 15, 10 day-on-2 day-off, 5-10 mg/kg/adm): 73 % TGI | CR or PR ([7]; single agent): no CR or PR | 0.5 μM HLM (% Remaining) ([8]; human, microsomes, 10 min, 0.5 µM, pH 7.4): 97% | IC50 ([9]; HeLa cells, luciferase, rounded to 2 digits, read-out: Notch 1 (IC50)): 1.6 nM | Antitumor Activity MDA-MB-157 (% TGI) ([10]; 7.5-10 mg/kg): 89 % TGI | Antitumor Activity (% TGI) ([10]; MDA-MB157, TN breast cancer, PO, QD × 15, 10 day-on-2 day-off, 5-10 mg/kg/adm): 81 % TGI | CR (%) [11, 16]: 0% | PR (%) [11, 16]: 0% | Tumor Growth Delay [11, 16]: 7.8 days | Tumor Growth Delay (LCK) [11, 16]: 0.5 LCK | Tumor Growth Delay [11, 17]: 21.2 days | Tumor Growth Delay (LCK) [11, 17]: 1.4 LCK | Antitumor Activity (% TGI) ([11]; MDA-MB468, TN breast cancer, single agent, PO, QD × 15, 10 day-on-2 day-off, 5-10 mg/kg/adm): 91 % TGI | Antitumor Activity MDA-MB-468 (% TGI) ([11]; single agent, 7.5-10 mg/kg): 78 % TGI | IC50 ([12]; HeLa cells, luciferase, rounded to 2 digits, read-out: Notch 3 (IC50)): 3.4 nM

NC(=O)[C@@H](CCC(F)(F)F)[C@@H](CCC(F)(F)F)C(=O)N[C@H]1N=C(c2ccccc2)c2ccccc2NC1=O [Example 2, (2R,3S)—N-((3S)-2-Oxo-5-phenyl-2,3-dihydro-1H-1,4-benzodiazepin-3-yl)-2,3-bis(3,3,3-trifluoropropyl)succinamide]
antitumor activity [4]: showed antitumor activity | Antitumor Activity TALL1 (LCK) ([5]; 24 mg/kg): 2.4 LCK | 0.5 μM MsLM (% Remaining) [6, 20]: 86% | 0.5 μM HLM (% Remaining) [8, 21]: 88% | IC50 [9, 22]: 1.7 nM | Antitumor Activity MDA-MB-157 (% TGI) ([10]; 24 mg/kg): 85 % TGI | Antitumor Activity MDA-MB-468 (% TGI) ([11]; single agent, 24 mg/kg): 87 % TGI | IC50 [12, 23]: 3.3 nM

COCCNc1cccc2c1NC(=O)[C@@H](NC(=O)[C@H](CCC(F)(F)F)[C@H](CCC(F)(F)F)C(N)=O)N=C2c1ccccc1 [Example 21, (2R,3S)—N-((3S)-9-((2-Methoxyethyl)amino)-2-oxo-5-phenyl-2,3-dihydro-1H-1,4-benzodiazepin-3-yl)-2,3-bis(3,3,3-trifluoropropyl)succinamide]
0.5 μM MsLM (% Remaining) [6, 20]: 82% | 0.5 μM HLM (% Remaining) [8, 21]: 98% | IC50 [9, 22]: 1.5 nM | IC50 [12, 23]: 4.2 nM

CC(=O)O[C@H]1C(=O)[C@@]2(C)[C@H]([C@H](OC(=O)c3ccccc3)[C@]3(O)C[C@H](OC(=O)[C@H](O)[C@@H](NC(=O)c4ccccc4)c4ccccc4)C(C)=C1C3(C)C)[C@]1(OC(C)=O)CO[C@@H]1C[C@@H]2O [Paclitaxel, paclitaxel, reference compound]
CR (%) [11, 24]: 0% | PR (%) [11, 24]: 0% | Tumor Growth Delay [11, 24]: 7.8 days | Tumor Growth Delay (LCK) [11, 24]: 0.5 LCK | antitumor effect (LCK) ([11]; paclitaxel weekly, 12 mg/kg/adm): 0.5 LCK

CC/C(=C(\c1ccccc1)c1ccc(OCCN(C)C)cc1)c1ccccc1 [Tamoxifen, reference compound]
CR (%) [7, 25]: 0% | PR (%) [7, 25]: 0% | Tumor Growth Inhibition TGI [7, 25]: 78% | % TGI ([7]; Tamoxifen at MTD dose of 20 mg/kg/adm, IP, Q2 DX12): 78% | CR or PR ([7]; single agent): no CR or PR

— US20150284342A1, “BIS(FLUOROALKYL)-1,4-BENZODIAZEPINONE COMPOUNDS” (BRISTOL-MYERS SQUIBB COMPANY, priority 2011, published 2015)
